Results taken from PubChem BioAssay AID2060893 (Molecular Pharmacology Branch, DTP, NCI, 2025).
Blank lines part the entries; values can stand above or below the compound they belong to.

Test system: K86415-001-R-J1-PDC complex spheroids, viability
Experiment: Anticancer human tumor K86415-001-R-J1-PDC patient-derived lung adenocarcinoma cell line growth inhibition [RAS]
Conditions: for IC50: curve of first compound; for viability, T/C: stronger effect = lower value
In short: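 Agents were tested in combination matrices in half-log decrements from a top concentration at or near clinical Cmax (10 microM if undetermined). Targets were multi-cell spheroids of tumour lines plus HUVEC and MSC stromal cells.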
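Further: spheroids exposed to agents for seven days before readout.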

IC50 (second compound 0.000949 µM): < 3.16 nM | IC50 (second compound 0.003 µM): < 3.16 nM | IC50 (second compound 0.00949 µM): < 3.16 nM | IC50 (second compound 0.03 µM): < 3.16 nM | IC50 (second compound 0.0949 µM): < 3.16 nM | IC50 (second compound 0.3 µM): < 3.16 nM
SMILES: C=CC(=O)N1CCN(c2nc(OCC3CCCN3C)nc3c(F)c(-c4nc(N)cc(C)c4C(F)(F)F)c(Cl)cc23)C(C)C1 (stereo not given) + CCn1c(-c2cc(N3CCN(C)CC3)cnc2C(C)OC)c2c3cc(ccc31)-c1csc(n1)CC(NC(=O)C1CC1C)C(=O)N1CCCC(N1)C(=O)OCC(C)(C)C2
viability, T/C (second compound 0.000949 µM, first compound 0.00316 µM): 14% | viability, T/C (second compound 0.000949 µM, first compound 0.01 µM): 11.3% | viability, T/C (second compound 0.000949 µM, first compound 0.0316 µM): 7.59% | viability, T/C (second compound 0.000949 µM, first compound 0.1 µM): 8% | viability, T/C (second compound 0.000949 µM, first compound 0.316 µM): 8.62% | viability, T/C (second compound 0.000949 µM, first compound 1 µM): 8.31% | viability, T/C (second compound 0.003 µM, first compound 0.00316 µM): 9.34% | viability, T/C (second compound 0.003 µM, first compound 0.01 µM): 6.02% | viability, T/C (second compound 0.003 µM, first compound 0.0316 µM): 5.36% | viability, T/C (second compound 0.003 µM, first compound 0.1 µM): 5.95% | viability, T/C (second compound 0.003 µM, first compound 0.316 µM): 6.92% | viability, T/C (second compound 0.003 µM, first compound 1 µM): 5.35% | viability, T/C (second compound 0.00949 µM, first compound 0.00316 µM): 4.68% | viability, T/C (second compound 0.00949 µM, first compound 0.01 µM): 4.68% | viability, T/C (second compound 0.00949 µM, first compound 0.0316 µM): 4.36% | viability, T/C (second compound 0.00949 µM, first compound 0.1 µM): 4.25% | viability, T/C (second compound 0.00949 µM, first compound 0.316 µM): 4.08% | viability, T/C (second compound 0.00949 µM, first compound 1 µM): 3.96% | viability, T/C (second compound 0.03 µM, first compound 0.00316 µM): 3.4% | viability, T/C (second compound 0.03 µM, first compound 0.01 µM): 3.36% | viability, T/C (second compound 0.03 µM, first compound 0.0316 µM): 2.8% | viability, T/C (second compound 0.03 µM, first compound 0.1 µM): 2.79% | viability, T/C (second compound 0.03 µM, first compound 0.316 µM): 3.36% | viability, T/C (second compound 0.03 µM, first compound 1 µM): 3.36% | viability, T/C (second compound 0.0949 µM, first compound 0.00316 µM): 2.57% | viability, T/C (second compound 0.0949 µM, first compound 0.01 µM): 2.3% | viability, T/C (second compound 0.0949 µM, first compound 0.0316 µM): 3.16% | viability, T/C (second compound 0.0949 µM, first compound 0.1 µM): 2.37% | viability, T/C (second compound 0.0949 µM, first compound 0.316 µM): 2.22% | viability, T/C (second compound 0.0949 µM, first compound 1 µM): 3.4% | viability, T/C (second compound 0.3 µM, first compound 0.00316 µM): 2.23% | viability, T/C (second compound 0.3 µM, first compound 0.01 µM): 2.68% | viability, T/C (second compound 0.3 µM, first compound 0.0316 µM): 2.5% | viability, T/C (second compound 0.3 µM, first compound 0.1 µM): 2.49% | viability, T/C (second compound 0.3 µM, first compound 0.316 µM): 3.18% | viability, T/C (second compound 0.3 µM, first compound 1 µM): 2.66%

IC50 (second compound 0.0316 µM): 2.54 nM | IC50 (second compound 0.1 µM): 2.62 nM | IC50 (second compound 0.316 µM): 2.35 nM | IC50 (second compound 1 µM): 1.79 nM | IC50 (second compound 3.16 µM): < 0.949 nM | IC50 (second compound 10 µM): < 0.949 nM
SMILES: CCc1c2c(nc3ccc(O)cc13)-c1cc3c(c(=O)n1C2)COC(=O)[C@]3(O)CC + C#Cc1c(F)ccc2cc(O)cc(-c3ncc4c(N5CC6CCC(C5)N6)nc(OCC56CCCN5CC(F)C6)nc4c3F)c12
viability, T/C (second compound 0.0316 µM, first compound 0.000949 µM): 93.6% | viability, T/C (second compound 0.0316 µM, first compound 0.003 µM): 41.2% | viability, T/C (second compound 0.0316 µM, first compound 0.00949 µM): 21.4% | viability, T/C (second compound 0.0316 µM, first compound 0.03 µM): 17% | viability, T/C (second compound 0.0316 µM, first compound 0.0949 µM): 10.5% | viability, T/C (second compound 0.0316 µM, first compound 0.3 µM): 5.25% | viability, T/C (second compound 0.1 µM, first compound 0.000949 µM): 85% | viability, T/C (second compound 0.1 µM, first compound 0.003 µM): 44.7% | viability, T/C (second compound 0.1 µM, first compound 0.00949 µM): 24.1% | viability, T/C (second compound 0.1 µM, first compound 0.03 µM): 14% | viability, T/C (second compound 0.1 µM, first compound 0.0949 µM): 9.47% | viability, T/C (second compound 0.1 µM, first compound 0.3 µM): 5.05% | viability, T/C (second compound 0.316 µM, first compound 0.000949 µM): 80.7% | viability, T/C (second compound 0.316 µM, first compound 0.003 µM): 40.4% | viability, T/C (second compound 0.316 µM, first compound 0.00949 µM): 23.9% | viability, T/C (second compound 0.316 µM, first compound 0.03 µM): 15.6% | viability, T/C (second compound 0.316 µM, first compound 0.0949 µM): 11.5% | viability, T/C (second compound 0.316 µM, first compound 0.3 µM): 5.49% | viability, T/C (second compound 1 µM, first compound 0.000949 µM): 69.1% | viability, T/C (second compound 1 µM, first compound 0.003 µM): 34.6% | viability, T/C (second compound 1 µM, first compound 0.00949 µM): 17.2% | viability, T/C (second compound 1 µM, first compound 0.03 µM): 13.6% | viability, T/C (second compound 1 µM, first compound 0.0949 µM): 10.5% | viability, T/C (second compound 1 µM, first compound 0.3 µM): 6.31% | viability, T/C (second compound 3.16 µM, first compound 0.000949 µM): 46% | viability, T/C (second compound 3.16 µM, first compound 0.003 µM): 33.3% | viability, T/C (second compound 3.16 µM, first compound 0.00949 µM): 22.5% | viability, T/C (second compound 3.16 µM, first compound 0.03 µM): 15.5% | viability, T/C (second compound 3.16 µM, first compound 0.0949 µM): 13.9% | viability, T/C (second compound 3.16 µM, first compound 0.3 µM): 6.66% | viability, T/C (second compound 10 µM, first compound 0.000949 µM): 17% | viability, T/C (second compound 10 µM, first compound 0.003 µM): 12.8% | viability, T/C (second compound 10 µM, first compound 0.00949 µM): 16.1% | viability, T/C (second compound 10 µM, first compound 0.03 µM): 18.1% | viability, T/C (second compound 10 µM, first compound 0.0949 µM): 14.2% | viability, T/C (second compound 10 µM, first compound 0.3 µM): 6.63%

SMILES: CCn1c(-c2cc(N3CCN(C)CC3)cnc2C(C)OC)c2c3cc(ccc31)-c1csc(n1)CC(NC(=O)C1CC1C)C(=O)N1CCCC(N1)C(=O)OCC(C)(C)C2 (stereo not given)
viability, T/C (compound 0.000949 µM): 50.3% [middle of 8 runs] | viability, T/C (compound 0.003 µM): 22.4% [middle of 8 runs] | viability, T/C (compound 0.00949 µM): 10.2% [middle of 8 runs] | viability, T/C (compound 0.03 µM): 6.3% [middle of 8 runs] | viability, T/C (compound 0.0949 µM): 3.96% [middle of 8 runs] | viability, T/C (compound 0.3 µM): 3.36% [middle of 8 runs]
